From patent publication US7232798B2, “Neuroprotection and neuroegenisis by administering cyclic prolyl glycine” (priority 2001, dated 2007)

Assays:
[1] = system: cerebellar microexplants (P4); experiment: Glutamate toxicity in P4 cerebellar microexplants and rescue by cPG; format: cell-based, Wistar rats
Experimental: Cerebellar Cell Culture Preparing and Coating of Cover Slips
Ten coverslips were placed into a large petri dish and washed in 70% alcohol for 5 minutes, then washed with Millipore H2O. The coverslips were air dried, then coated with Poly-D-Lysine (1 mg/ml stock solution in PBS, 90-100 μl) and incubated for 2 hours at 34 C.
Postnatal day 4 Wistar rats were used for the study. Rats were placed in ice for 1 minute, the heads were decapitated and the cerebellum removed on ice. […] The tissue was sieved through (125 μm pore size gaze) and centrifuged (2 minutes at 60 g) two times for a medium exchange into serum-free BSA-supplemented START V medium (Biochrom). The second centrifugation step was done with 1 ml of START V medium. The microexplants were reconstituted into 500 μl of START V medium and put on ice
Two hours after PDL-coating, the slides were washed with Millipore H2O and air dried. Each slide was placed into a small 35 mm petri dish and 40 μl of START V/cell suspension added. The tissue was incubated for 2 hours at 34 C (settlement period). START V-medium (1 ml) was then added to the petri dish and cultivated at 34 C/5% CO2/100% humidity for 48 hours. […] Finally, the microexplants were rinsed in PBS.
10 μl of toxin (L-glutamate-100 mM in Millipore water) was applied simultaneously with cPG (from bachem, 10 mM stock prepared in PBS and diluted to final concentrations between 1-100 nM) for Study 1. A delay in administration of cPG at 6 hours after glutamate treatment was performed for Study 2.

[2] = system: 6-OHDA induced nigral-striatal lesion; experiment: Apomorphine-induced rotations after 6-OHDA induced nigral-striatal lesion; format: in vivo, Wistar rats
Experimental: Twenty male Wistar rats (280-310 g) were used. After exposing the skull, 6-OHDA (8 μg in a base of 2 μl 0.9% saline containing 1% ascorbic acid) was administered into the right medial forebrain bundle (MFB) using co-ordinates AP +4.7 mm, R 1.6 mmv-8 mm under 3% halothane anaesthesia. 6-OHDA was injected through a 25 G needle connected via a polyethylene catheter to a 100 μl Hamilton syringe. The 6-OHDA was infused by a microdialysis infusion pump at a rate of 0.5 μl/min. The needle was left in the brain for a further 3 minutes before being slowly withdrawn. The skin was sutured with 2.0 silk and the rats were allowed to recover from anaesthesia. The rats were housed in a holding room with free access to food and water at all times except during behavioural testing.
Cyclic PG was dissolved in saline. Four different doses of cPG (0, 0.1 0.5 1 mg/kg, Bachem) were administered intraperitoneally 2 h post lesion.
At 7 days post-lesion, rats were injected with 0.1 mg/kg apomorphine and the number of contralateral rotations/hour was recorded and calculated using a computerised Rotameter (St Diego Instruments). Experimenter was blinded from the treatment groups.

[3] = system: rat Hippocampal Organotypic cultures exposed to NMDA; conditions: lower (1 μM) or higher (50-100 μM) concentrations reduced neuronal damage to a lesser extent; cited from earlier work
[4] = fetal sheep, cited from earlier work

N[C@@H](CCC(=O)O)C(=O)O [Glutamate, L-glutamate, reference compound]
loss of cerebellum neurons ([1]; Study 1, glutamate treatment alone): 85%

O=C1NCC(=O)N2CCC[C@@H]12 [cPG, cyclic Prolyl Glycine]
neuron number compared to the normal control group ([1]; a further lower dose of cPG): significant increase | glutamate-induced neurotoxicity ([1]; given either immediately or 6 hours after the glutamate treatment): completely prevented | number of contralateral rotations/hour ([2]; 1 mg cPG intraperitoneally 2 h post lesion, 7 days post-lesion, 0.1 mg/kg apomorphine, n=5, FIG. 5): 154±64.1 rotations/hour | reduction of functional deficit (apomorphine induced rotations) ([2]; highest dose tested (1 mg/kg), ns): 47%

glycine-proline-glutamate [GPE]
concentration giving the highest degree of neuroprotection [3]: 10 µM

insulin-like growth factor I [IGF-I]
dose at which all the neuroprotective effects are lost ([4]; 1 μg more neuroprotective than 100 ng): 10 µg | dose that usually killed the sheep fetus [4]: ≥ 100 µg
